Data: patent US12465594B2 (Brown University, priority 2018, dated 2025)
Entries after “also recorded” stand apart in the source; their conditions may differ.

Key:
[1] = target: T1, CRFBP-CRF2 complex (Homo sapiens, UniProt P24387+Q13324); test: CRFBP-CRF2 Ca2+ assay (FDSS7000; dose-response, Schild analysis); type: cell-based; conditions: for CRF maximal response with increasing concentrations of compound / Mechanism of antagonism relative to CRF (Schild analysis): 1.11, 3.33, 10 μM compound; for Antagonism of the CRFBP-CRF2 response: dose-response in presence of EC80 CRF
T1 construct: FLAG (N); HA (N); expressed in transfected cells
T1 sequence (P24387+Q13324 with tags, fused parts or gaps): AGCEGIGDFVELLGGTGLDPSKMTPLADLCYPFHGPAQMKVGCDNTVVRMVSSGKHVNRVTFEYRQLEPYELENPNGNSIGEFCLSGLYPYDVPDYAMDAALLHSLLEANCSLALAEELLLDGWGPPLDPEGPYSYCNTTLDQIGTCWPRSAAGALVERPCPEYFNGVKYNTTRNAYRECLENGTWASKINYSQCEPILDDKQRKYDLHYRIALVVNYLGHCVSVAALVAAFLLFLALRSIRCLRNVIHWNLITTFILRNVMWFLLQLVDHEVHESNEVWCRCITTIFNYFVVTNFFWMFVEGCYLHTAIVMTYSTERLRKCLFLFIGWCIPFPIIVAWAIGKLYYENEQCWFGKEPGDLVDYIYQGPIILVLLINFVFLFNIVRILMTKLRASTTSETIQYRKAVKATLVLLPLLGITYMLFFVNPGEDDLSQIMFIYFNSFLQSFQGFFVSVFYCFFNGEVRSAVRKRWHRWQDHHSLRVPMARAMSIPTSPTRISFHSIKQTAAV
Experimental: CRFBP-CRF2 HEK293 cells (1,000 cells/6 μL per well) were plated in 1536-well black walled clear-bottom Poly-D-Lysine coated plates (Corning) in Assay Media (Dulbecco's Modified Eagle Medium (DMEM) (1×), phenol red free, 1% Defined Fetal Bovine Serum (FBS) (Hyclone), 1×Penicillin/Streptomycin (P/S), and 1×L-Glutamine) using a Multidrop Combi (Thermo). Cell plates were spun at 500 rpm for 1 minute in a centrifuge, covered with Kalypsys lids, and incubated overnight at 37° C. in the presence of 5% CO2. The following day, 2 μL per well of FLIPR Calcium 4 Dye (Molecular Devices), prepared in Assay Buffer (1×Hanks' balanced salt solution, 20 mM HEPES, 0.1% Bovine Serum Albumin [Sigma], and 2.5 mM probenecid [Sigma], pH 7.4) was added to each well of the assay plate at 0.5×according to the Manufacturer's Instructions using the Multidrop Combi (Thermo) dispenser and the cells were incubated in dye for 1 hour 37° C. in the presence of 5% CO2. Reagents are from Invitrogen unless otherwise stated.
Calcium flux was measured using a Functional Drug Screening System 7000 (FDSS7000; Hamamatsu, Tokyo, Japan). Baseline readings were taken (9 images at 1 Hz; excitation, 470±20 nm; emission, 540±30 nm), and then test compounds (approximately 53 nL) were added at the 10 second time-point using the FDSS's integrated 1536 well pin-tool from source library plates (Corning) containing 2 mM test compound stocks in 100% DMSO. […] Agonist “Hits” were selected by comparing the amplitude of the responses at the time of test compound addition to the CRF maximal response on each plate.
For confirmation screening, the CRFBP-CRF2 Ca^2+ assay was performed in the identical as the primary screen with the following exceptions. For each test compound, eight assay plates were prepared, each of which received a different concentration of test compound by pin-tool in the FDSS7000 Ca^2+ assay. For the agonist confirmation screening, compounds were tested at 53.0 μM, 26.5 μM, 13.3 μM, 6.63 μM, 3.31 μM, 1.66 μM, 0.828 μM, and 0.414 μM. For the antagonist confirmation screening, compounds were tested at 47.1 μM, 23.6 μM, 11.8 μM, 5.89 μM, 2.94 μM, 1.47 μM, 0.736 μM, and 0.368 μM.

[2] = Plasma protein binding (equilibrium dialysis); type: in vitro ADME; conditions: rat plasma
Text: Both compounds were then profiled for their plasma protein binding (PPB) and brain homogenate binding (BHB) to predict the unbound drug fraction in the plasma and brain respectively.

[3] = target: DOR (Homo sapiens, UniProt P41143); test: PDSP binding assay; conditions: 10 μM, quadruplicate, cloned target
[4] = target: T2, 5-HT1A (Homo sapiens, UniProt P08908); test: PDSP binding assay; conditions: 10 μM, quadruplicate, cloned target
T2 construct: NIMH Psychoactive Drug Screening Program (PDSP)

[5] = target: NET (Homo sapiens, UniProt P23975); test: PDSP binding assay; conditions: 10 μM, quadruplicate, cloned target
[6] = target: T3, 5-HT1B (Homo sapiens, UniProt P28222); test: PDSP binding assay; conditions: 10 μM, quadruplicate, cloned target
T3 construct: NIMH Psychoactive Drug Screening Program (PDSP)

[7] = target: Alpha1A (Homo sapiens, UniProt P35348); test: PDSP binding assay; conditions: 10 μM, quadruplicate, cloned target
[8] = target: D3 (Homo sapiens, UniProt P35462); test: PDSP binding assay; conditions: 10 μM, quadruplicate, cloned target
[9] = target: SERT (Homo sapiens, UniProt P31645); test: PDSP binding assay; conditions: 10 μM, quadruplicate, cloned target
[10] = target: Alpha2A (Homo sapiens, UniProt P08913); test: PDSP binding assay; conditions: 10 μM, quadruplicate, cloned target
[11] = target: Alpha2B (Homo sapiens, UniProt P18089); test: PDSP binding assay; conditions: 10 μM, quadruplicate, cloned target
[12] = target: T4, D2 (Homo sapiens, UniProt P14416); test: PDSP binding assay; conditions: 10 μM, quadruplicate, cloned target
T4 construct: NIMH Psychoactive Drug Screening Program (PDSP)

[13] = target: T5, 5-HT2C (Homo sapiens, UniProt P28335); test: PDSP binding assay; conditions: 10 μM, quadruplicate, cloned target
T5 construct: NIMH Psychoactive Drug Screening Program (PDSP)

[14] = target: T6, D1 (Homo sapiens, UniProt P21728); test: PDSP binding assay; conditions: 10 μM, quadruplicate, cloned target
T6 construct: NIMH Psychoactive Drug Screening Program (PDSP)

[15] = target: CYP2D6 (Homo sapiens, UniProt P10635); test: in vitro; conditions: microsomes
[16] = target: H3 (Homo sapiens, UniProt Q9Y5N1); test: PDSP binding assay; conditions: 10 μM, quadruplicate, cloned target
[17] = target: T7, 5-HT1E (Homo sapiens, UniProt P28566); test: PDSP binding assay; conditions: 10 μM, quadruplicate, cloned target
T7 construct: NIMH Psychoactive Drug Screening Program (PDSP)

[18] = target: CRF1 (Homo sapiens, UniProt P34998); test: CRF1 Ca2+ assay; conditions: presence of EC80 CRF
[19] = target: Alpha2C (Homo sapiens, UniProt P18825); test: PDSP binding assay; conditions: 10 μM, quadruplicate, cloned target
[20] = target: H2 (Homo sapiens, UniProt P25021); test: PDSP binding assay; conditions: 10 μM, quadruplicate, cloned target
[21] = test system: Sigma 1; test: PDSP binding assay; conditions: 10 μM, quadruplicate, cloned target

T3 sequence (P28222 whole entry, species assumed): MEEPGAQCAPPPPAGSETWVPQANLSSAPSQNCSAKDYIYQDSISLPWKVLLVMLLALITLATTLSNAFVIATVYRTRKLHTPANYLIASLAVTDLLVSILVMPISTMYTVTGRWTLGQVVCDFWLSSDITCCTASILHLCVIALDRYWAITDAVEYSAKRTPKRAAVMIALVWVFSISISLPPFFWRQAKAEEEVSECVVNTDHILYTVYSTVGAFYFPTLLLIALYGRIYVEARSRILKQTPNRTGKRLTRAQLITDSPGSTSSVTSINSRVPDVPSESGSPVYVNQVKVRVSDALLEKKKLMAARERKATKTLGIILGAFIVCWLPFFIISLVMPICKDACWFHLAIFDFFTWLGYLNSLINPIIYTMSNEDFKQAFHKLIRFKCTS
Alpha1A, sequence (P35348 whole entry): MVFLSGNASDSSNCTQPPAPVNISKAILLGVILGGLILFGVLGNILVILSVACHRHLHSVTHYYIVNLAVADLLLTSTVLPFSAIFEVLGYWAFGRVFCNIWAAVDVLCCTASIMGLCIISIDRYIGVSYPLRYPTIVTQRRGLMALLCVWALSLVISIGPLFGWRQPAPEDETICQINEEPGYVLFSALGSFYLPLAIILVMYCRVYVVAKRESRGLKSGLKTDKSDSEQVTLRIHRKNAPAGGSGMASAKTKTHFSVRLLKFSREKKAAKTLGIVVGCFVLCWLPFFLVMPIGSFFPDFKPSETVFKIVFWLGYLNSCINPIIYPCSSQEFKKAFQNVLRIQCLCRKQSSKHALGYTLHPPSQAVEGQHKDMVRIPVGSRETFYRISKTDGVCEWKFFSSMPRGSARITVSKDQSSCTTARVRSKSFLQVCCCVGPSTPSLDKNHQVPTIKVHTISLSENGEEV
SERT, sequence (P31645 whole entry, species assumed): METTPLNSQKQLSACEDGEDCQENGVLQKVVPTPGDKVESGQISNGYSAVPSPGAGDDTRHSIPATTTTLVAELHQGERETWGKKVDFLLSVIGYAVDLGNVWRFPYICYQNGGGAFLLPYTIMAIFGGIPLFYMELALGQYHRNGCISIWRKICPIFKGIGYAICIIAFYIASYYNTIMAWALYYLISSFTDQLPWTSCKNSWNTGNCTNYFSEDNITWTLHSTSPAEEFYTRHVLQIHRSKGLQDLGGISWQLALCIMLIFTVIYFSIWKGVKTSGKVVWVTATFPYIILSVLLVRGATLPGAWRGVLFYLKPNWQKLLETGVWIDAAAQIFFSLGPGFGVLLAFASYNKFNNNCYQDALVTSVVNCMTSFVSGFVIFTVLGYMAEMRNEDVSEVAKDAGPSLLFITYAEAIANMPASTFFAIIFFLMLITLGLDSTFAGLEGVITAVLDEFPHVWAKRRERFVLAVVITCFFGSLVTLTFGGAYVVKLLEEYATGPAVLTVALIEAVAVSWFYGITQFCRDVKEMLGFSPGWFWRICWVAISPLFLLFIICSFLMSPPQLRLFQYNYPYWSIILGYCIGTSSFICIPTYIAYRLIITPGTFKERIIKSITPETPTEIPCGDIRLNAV
T2 sequence (P08908 whole entry, species assumed): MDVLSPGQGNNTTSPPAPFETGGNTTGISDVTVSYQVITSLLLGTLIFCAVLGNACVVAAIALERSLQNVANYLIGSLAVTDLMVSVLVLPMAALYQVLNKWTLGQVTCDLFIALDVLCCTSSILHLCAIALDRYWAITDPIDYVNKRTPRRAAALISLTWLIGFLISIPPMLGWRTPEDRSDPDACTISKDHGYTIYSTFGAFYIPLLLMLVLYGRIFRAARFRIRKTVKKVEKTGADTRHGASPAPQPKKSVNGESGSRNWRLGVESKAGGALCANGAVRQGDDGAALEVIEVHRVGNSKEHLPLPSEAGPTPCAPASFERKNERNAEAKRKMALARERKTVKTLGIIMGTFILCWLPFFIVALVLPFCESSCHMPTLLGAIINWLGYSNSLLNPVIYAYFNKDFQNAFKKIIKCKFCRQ
T4 sequence (P14416 whole entry): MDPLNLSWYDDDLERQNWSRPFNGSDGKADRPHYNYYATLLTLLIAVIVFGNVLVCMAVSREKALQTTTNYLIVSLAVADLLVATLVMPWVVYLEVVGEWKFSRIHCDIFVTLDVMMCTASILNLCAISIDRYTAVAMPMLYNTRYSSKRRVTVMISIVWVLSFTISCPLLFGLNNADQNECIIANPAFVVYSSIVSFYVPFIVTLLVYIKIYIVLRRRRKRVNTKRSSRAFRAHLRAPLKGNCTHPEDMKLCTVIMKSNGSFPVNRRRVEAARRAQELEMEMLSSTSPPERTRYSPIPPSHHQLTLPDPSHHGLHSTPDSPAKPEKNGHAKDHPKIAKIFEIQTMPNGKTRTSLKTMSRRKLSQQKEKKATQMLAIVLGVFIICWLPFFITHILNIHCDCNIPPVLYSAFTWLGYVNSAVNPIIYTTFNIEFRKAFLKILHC
CRF1, sequence (P34998 24-415): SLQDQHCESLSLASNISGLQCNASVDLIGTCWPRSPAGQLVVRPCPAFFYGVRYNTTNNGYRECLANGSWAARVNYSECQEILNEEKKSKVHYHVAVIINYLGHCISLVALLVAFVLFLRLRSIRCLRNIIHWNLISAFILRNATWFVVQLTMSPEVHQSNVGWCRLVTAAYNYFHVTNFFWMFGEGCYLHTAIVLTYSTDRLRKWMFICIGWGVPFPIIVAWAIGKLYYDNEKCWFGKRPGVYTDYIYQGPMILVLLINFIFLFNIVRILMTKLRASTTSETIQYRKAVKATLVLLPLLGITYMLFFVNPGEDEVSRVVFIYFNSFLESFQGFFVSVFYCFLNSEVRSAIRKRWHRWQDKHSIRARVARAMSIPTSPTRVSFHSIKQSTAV
Alpha2A, sequence (P08913 whole entry): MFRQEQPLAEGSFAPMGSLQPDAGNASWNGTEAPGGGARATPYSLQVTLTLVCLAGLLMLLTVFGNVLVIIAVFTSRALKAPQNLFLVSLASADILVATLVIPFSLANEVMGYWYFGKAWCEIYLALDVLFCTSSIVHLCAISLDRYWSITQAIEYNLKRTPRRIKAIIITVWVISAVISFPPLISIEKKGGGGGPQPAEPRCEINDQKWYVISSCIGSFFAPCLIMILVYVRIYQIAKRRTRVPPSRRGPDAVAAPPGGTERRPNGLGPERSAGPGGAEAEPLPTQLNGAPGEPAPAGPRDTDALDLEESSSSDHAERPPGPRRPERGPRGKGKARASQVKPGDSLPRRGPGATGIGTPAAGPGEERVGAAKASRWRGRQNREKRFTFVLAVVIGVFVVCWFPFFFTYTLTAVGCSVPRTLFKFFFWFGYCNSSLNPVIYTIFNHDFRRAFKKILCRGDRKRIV
D3, sequence (P35462 whole entry): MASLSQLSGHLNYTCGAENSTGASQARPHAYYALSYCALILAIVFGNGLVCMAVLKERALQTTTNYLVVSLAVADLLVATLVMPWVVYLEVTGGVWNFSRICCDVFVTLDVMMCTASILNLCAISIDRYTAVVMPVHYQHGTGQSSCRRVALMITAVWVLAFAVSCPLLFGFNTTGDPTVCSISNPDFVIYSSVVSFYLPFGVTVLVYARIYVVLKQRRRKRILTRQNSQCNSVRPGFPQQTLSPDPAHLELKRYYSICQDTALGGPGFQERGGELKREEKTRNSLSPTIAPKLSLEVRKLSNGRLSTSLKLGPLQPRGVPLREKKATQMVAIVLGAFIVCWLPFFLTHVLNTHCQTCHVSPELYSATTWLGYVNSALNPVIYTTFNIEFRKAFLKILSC
Alpha2C, sequence (P18825 whole entry): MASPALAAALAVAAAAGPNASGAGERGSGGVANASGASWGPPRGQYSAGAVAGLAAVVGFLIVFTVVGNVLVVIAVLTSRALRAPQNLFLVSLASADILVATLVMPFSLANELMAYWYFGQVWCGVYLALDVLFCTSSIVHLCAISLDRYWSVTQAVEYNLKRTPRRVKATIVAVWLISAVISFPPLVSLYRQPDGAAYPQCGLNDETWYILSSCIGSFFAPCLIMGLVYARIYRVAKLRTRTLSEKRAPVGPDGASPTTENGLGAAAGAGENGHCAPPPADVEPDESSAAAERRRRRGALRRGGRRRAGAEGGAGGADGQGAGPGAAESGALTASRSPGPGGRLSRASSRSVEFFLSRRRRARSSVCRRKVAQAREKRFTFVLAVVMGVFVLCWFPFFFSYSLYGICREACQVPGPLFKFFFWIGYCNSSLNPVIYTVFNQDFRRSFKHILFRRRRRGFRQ
H2, sequence (P25021 whole entry): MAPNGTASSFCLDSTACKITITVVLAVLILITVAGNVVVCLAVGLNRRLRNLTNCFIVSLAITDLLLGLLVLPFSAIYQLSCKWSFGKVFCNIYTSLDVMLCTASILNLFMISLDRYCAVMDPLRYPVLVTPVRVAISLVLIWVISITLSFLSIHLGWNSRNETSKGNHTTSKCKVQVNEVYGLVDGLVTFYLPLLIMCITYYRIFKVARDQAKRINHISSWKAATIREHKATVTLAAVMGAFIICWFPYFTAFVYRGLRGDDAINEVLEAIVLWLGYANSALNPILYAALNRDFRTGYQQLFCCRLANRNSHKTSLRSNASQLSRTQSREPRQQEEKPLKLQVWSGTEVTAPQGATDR
CYP2D6, sequence (P10635 whole entry): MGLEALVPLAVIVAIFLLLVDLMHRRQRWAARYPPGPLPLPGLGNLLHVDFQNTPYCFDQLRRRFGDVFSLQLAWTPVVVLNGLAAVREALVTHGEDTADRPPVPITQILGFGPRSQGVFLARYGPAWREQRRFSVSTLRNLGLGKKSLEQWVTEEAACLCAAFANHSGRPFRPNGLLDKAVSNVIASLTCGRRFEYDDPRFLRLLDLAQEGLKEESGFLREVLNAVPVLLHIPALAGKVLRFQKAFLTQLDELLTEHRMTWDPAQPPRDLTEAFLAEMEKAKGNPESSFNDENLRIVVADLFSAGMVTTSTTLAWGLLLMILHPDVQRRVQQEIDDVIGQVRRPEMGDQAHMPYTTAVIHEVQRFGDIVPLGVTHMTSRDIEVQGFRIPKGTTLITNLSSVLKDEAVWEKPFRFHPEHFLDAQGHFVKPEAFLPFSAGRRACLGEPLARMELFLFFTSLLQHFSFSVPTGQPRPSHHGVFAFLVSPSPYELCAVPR

Compound | CRF maximal response with increasing concentrations of compound [1] | Mechanism of antagonism relative to CRF (Schild analysis) [1] | Antagonism of the CRFBP-CRF2 response [1] | Plasma protein binding, free [2] [% free] | Activity at DOR (binding assay) [3] [%] | Activity at 5-HT1A (binding assay) [4] [%] | Activity at NET (binding assay) [5] [%] | Activity at 5-HT1B (binding assay) [6] [%] | Activity at Alpha1A (binding assay) [7] [%] | Activity at D3 (binding assay) [8] [%] | Activity at SERT (binding assay) [9] [%] | Activity at Alpha2A (binding assay) [10] [%] | Activity at Alpha2B (binding assay) [11] [%] | Activity at D2 (binding assay) [12] [%] | Activity at 5-HT2C (binding assay) [13] [%] | Activity at D1 (binding assay) [14] [%] | inhibition at 10 µM [15] [%] | Activity at H3 (binding assay) [16] [%] | Activity at 5-HT1E (binding assay) [17] [%] | CRF1 activity [18] | other results
Brc1ccccc1-c1nnc(CSc2nnnn2-c2ccccc2)o1 [MLS-0046818] | decreased | noncompetitively antagonize CRF responses | only inhibit the CRFBP-CRF2 response | 4.6 | −7 | 26 | 8 | 5 | 10 | −11 | −14 | 4 | 2 | −13 | 19 | −1 | -128 | −15 | 16 | inactive | Mechanism of antagonism relative to CRF (Schild analysis) ([1]; listed as MLS-0046181): noncompetitive interaction; Activity at Alpha2C (binding assay) [19]: 8%; Activity at H2 (binding assay) [20]: 22%; Activity at Sigma 1 (binding assay) [21]: 8%
CC(C)Cn1c(SCC(=O)N2CCc3ccccc3C2)nc2cc(Cl)ccc2c1=O [MLS-0219419] | decreased | noncompetitive interaction; also recorded: noncompetitively antagonize CRF responses | only inhibit the CRFBP-CRF2 response | 0.1 | −8 | −9 | 12 | 18 | −15 | −6 | −14 | 8 | 0 | −5 | −7 | 1 | -21 | −9 | 11 | inactive | Activity at Alpha2C (binding assay) [19]: −5%; Activity at H2 (binding assay) [20]: 20%; Activity at Sigma 1 (binding assay) [21]: 7%
